{"source": "patent US9532983B2", "about": "“Benzofuran compounds, compositions, kits and/or methods thereof” (Savannah State University, priority 2013, dated 2017)", "key": {"non-sigma receptors": {"system": "non-sigma receptors", "experiment": "Binding screen against panel of non-sigma receptors (overall statement)", "procedure": "(§1) Initial primary binding screening assays were performed using a 50 μM (initial)−10 μM (final) assay concentration of reference and test compounds."}, "Alpha2A [1]": {"target": "T1, Alpha2A (Homo sapiens, UniProt P08913)", "T1 construct": "expressed in transfected cells", "T1 sequence (P08913 1-465)": "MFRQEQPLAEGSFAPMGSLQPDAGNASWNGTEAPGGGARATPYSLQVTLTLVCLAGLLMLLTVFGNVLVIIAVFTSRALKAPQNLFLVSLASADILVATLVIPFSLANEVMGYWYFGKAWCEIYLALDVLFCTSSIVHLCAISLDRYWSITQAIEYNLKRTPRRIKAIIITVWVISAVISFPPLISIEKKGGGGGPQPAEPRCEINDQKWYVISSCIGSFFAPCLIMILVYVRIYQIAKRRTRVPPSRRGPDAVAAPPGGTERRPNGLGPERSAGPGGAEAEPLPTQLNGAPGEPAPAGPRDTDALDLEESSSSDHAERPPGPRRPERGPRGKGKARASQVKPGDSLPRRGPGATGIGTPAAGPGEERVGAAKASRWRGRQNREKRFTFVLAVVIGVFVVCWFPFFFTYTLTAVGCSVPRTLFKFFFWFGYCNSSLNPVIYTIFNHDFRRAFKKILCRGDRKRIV", "experiment": "Secondary binding assay, Ki determination: Alpha2A"}, "5-HT2A": {"target": "T2, 5-HT2A (Homo sapiens, UniProt P28223)", "T2 construct": "expressed in transfected cells", "T2 sequence (P28223 whole entry)": "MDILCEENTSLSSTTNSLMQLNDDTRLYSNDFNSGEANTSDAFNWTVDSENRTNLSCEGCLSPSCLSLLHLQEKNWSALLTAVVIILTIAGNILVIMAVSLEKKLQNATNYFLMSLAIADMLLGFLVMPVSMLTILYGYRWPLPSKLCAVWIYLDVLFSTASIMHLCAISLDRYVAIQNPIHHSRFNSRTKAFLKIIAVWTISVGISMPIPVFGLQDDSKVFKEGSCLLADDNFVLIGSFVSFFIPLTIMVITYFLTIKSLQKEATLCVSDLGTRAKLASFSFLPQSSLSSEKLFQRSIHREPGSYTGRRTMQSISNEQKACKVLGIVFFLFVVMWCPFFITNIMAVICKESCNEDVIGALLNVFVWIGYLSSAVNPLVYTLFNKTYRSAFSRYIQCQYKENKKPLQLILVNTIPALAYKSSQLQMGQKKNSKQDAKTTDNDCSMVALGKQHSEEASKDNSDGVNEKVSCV", "experiment": "Secondary binding assay, Ki determination: 5-HT2A"}, "σ1 receptor": {"target": "T3, σ1 receptor (Rattus norvegicus, UniProt Q9R0C9)", "T3 construct": "crude membrane fractions prepared from rat brain homogenate for σ1 receptors; from tissue; host or cells: rat brain homogenate, crude membrane fraction", "T3 sequence (Q9R0C9 whole entry)": "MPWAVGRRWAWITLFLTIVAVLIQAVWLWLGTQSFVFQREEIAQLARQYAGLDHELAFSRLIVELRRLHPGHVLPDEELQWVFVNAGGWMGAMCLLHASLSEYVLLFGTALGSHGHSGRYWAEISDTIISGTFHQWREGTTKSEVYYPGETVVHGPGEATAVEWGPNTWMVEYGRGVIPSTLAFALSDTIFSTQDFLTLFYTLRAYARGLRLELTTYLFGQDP", "experiment": "Secondary binding assay, Ki determination at σ1 receptor ([3H]pentazocine)", "settings": "rat brain homogenate, read-out: σ-1 (Ki)"}, "Alpha2A [2]": {"target": "T1, Alpha2A", "experiment": "Primary binding assay at non-sigma receptors: Alpha2A", "settings": "10 μM (final) assay concentration", "procedure": "as §1"}, "D3": {"target": "T4, D3 (Homo sapiens, UniProt P35462)", "T4 construct": "expressed in transfected cells", "T4 sequence (P35462 whole entry)": "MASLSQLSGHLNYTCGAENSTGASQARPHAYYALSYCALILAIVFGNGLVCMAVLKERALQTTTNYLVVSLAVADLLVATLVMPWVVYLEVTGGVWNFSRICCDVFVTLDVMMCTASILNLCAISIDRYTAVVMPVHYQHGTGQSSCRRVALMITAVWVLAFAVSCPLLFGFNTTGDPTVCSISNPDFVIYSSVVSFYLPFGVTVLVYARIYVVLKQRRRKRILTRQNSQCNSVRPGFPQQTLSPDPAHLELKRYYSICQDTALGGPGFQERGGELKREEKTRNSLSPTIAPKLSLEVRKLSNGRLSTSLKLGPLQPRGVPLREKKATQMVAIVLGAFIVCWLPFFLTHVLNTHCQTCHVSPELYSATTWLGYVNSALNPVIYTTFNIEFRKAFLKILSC", "experiment": "Primary binding assay at non-sigma receptors: D3", "settings": "10 μM (final) assay concentration", "procedure": "as §1"}, "5-HT2B": {"target": "T5, 5-HT2B (Homo sapiens, UniProt P41595)", "T5 construct": "expressed in transfected cells", "T5 sequence (P41595 whole entry, species assumed)": "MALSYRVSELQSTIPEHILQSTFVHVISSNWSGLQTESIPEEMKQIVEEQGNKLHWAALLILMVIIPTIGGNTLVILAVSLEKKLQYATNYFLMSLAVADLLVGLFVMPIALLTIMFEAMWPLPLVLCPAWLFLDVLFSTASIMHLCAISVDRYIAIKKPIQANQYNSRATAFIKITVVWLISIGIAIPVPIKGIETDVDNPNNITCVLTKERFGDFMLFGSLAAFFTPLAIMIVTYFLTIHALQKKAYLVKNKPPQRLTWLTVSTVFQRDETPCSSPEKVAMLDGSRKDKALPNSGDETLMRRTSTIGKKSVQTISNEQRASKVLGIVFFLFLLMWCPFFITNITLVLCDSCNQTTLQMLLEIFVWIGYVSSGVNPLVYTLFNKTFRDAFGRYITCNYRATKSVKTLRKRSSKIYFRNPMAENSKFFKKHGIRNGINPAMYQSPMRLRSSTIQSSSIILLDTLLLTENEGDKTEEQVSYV", "experiment": "Secondary binding assay, Ki determination: 5-HT2B"}, "Alpha2C": {"target": "T6, Alpha2C (Homo sapiens, UniProt P18825)", "T6 construct": "expressed in transfected cells", "T6 sequence (P18825 1-462)": "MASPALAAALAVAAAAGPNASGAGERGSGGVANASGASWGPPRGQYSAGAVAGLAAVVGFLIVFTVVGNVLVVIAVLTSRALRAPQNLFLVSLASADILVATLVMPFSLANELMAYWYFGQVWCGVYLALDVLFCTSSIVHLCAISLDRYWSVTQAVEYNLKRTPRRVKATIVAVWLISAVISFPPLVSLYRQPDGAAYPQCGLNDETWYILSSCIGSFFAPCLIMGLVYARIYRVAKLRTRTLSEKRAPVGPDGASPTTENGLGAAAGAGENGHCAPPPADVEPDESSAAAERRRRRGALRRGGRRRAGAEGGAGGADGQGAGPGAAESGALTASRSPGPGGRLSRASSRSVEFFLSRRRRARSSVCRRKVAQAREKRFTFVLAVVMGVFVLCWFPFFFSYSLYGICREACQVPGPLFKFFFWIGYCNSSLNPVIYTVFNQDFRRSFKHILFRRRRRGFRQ", "experiment": "Secondary binding assay, Ki determination: Alpha2C"}, "M4": {"target": "T7, M4 (Homo sapiens, UniProt P08173)", "T7 construct": "expressed in transfected cells", "T7 sequence (P08173 1-479)": "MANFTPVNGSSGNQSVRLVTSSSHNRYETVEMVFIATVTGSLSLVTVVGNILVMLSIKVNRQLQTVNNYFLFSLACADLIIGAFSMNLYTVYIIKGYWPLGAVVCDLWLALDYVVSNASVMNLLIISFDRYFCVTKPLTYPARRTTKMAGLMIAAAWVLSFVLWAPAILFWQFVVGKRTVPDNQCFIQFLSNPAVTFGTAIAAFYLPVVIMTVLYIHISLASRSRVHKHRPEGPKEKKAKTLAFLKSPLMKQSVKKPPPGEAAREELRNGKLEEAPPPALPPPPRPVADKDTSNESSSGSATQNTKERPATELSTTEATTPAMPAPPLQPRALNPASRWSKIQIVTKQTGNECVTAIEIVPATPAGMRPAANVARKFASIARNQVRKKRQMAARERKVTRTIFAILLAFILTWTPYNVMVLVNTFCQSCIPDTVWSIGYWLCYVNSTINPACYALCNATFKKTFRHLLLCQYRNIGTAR", "experiment": "Secondary binding assay, Ki determination: M4"}, "5HT3": {"target": "T8, 5HT3 (Homo sapiens, UniProt P46098)", "T8 construct": "expressed in transfected cells", "T8 sequence (P46098 24-478)": "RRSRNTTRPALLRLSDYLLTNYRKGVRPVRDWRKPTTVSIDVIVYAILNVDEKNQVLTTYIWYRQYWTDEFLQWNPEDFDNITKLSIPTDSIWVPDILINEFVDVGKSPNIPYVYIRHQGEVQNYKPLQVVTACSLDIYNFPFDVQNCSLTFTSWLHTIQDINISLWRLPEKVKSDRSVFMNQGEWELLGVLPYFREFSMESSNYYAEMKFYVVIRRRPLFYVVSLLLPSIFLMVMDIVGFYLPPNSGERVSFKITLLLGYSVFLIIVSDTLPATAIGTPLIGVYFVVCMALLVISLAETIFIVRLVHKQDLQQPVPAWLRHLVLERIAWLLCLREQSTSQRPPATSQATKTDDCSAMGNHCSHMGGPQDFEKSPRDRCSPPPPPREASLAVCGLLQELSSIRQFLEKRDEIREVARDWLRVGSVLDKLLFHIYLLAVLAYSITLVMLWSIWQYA", "experiment": "Secondary binding assay, Ki determination: 5HT3"}}, "note": "“And” between values parts separate entries of the source, which are not always exact repeats. Equal values may be shown once.", "data": [{"smiles": "COc1ccc2c(C)c(C(=O)N(CCCN3CCCCC3)c3ccccc3)oc2c1", "note": "[KSCM-11, 6-Methoxy-3-methyl-N-phenyl-N-(3-(piperidin-1-yl)propyl)benzofuran-2-carboxamide]", "values": [{"measurement": "affinity at non-sigma receptors selected for secondary binding assay (in words)", "setting": "non-sigma receptors", "result": "no significant affinity"}, {"measurement": "selectivity for sigma receptors (σ1 and σ2) over non-sigma receptors (in words)", "setting": "non-sigma receptors", "result": "have the desired selectivity for sigma receptors"}, {"measurement": "Ki", "setting": "Alpha2A [1]", "result": 653, "unit": "nM"}, {"measurement": "Ki", "setting": "5-HT2A", "result": 2770, "unit": "nM"}, {"measurement": "Ki", "setting": "σ1 receptor", "result": 0.034, "unit": "µM"}, {"measurement": "inhibition at 10 µM", "setting": "Alpha2A [2]", "result": 81.1, "unit": "%"}, {"measurement": "inhibition at 10 µM", "setting": "D3", "result": 40.6, "unit": "%"}, {"measurement": "Ki", "setting": "5-HT2B", "result": 204, "unit": "nM"}]}, {"smiles": "COc1cc2oc(C(=O)N(CCCN3CCCCC3)c3ccccc3)c(C)c2cc1OC", "note": "[KSCM-1, 5,6-Dimethoxy-3-methyl-N-phenyl-N-(3-(piperidin-1-yl)propyl)benzofuran-2-carboxamide]", "values": [{"measurement": "Ki", "setting": "Alpha2C", "result": 1540, "unit": "nM"}, {"measurement": "Ki", "setting": "M4", "result": 2870, "unit": "nM"}, {"measurement": "Ki", "setting": "5-HT2A", "result": 2560, "unit": "nM"}, {"measurement": "Ki", "setting": "σ1 receptor", "result": "0.027 µM and 0.0275 µM"}, {"measurement": "inhibition at 10 µM", "setting": "D3", "result": 38.8, "unit": "%"}, {"measurement": "Ki", "setting": "5HT3", "result": 7610, "unit": "nM"}]}, {"smiles": "Cc1c(C(=O)N(CCCN2CCCCC2)c2ccccc2)oc2ccccc12", "note": "[KSCM-5, 3-Methyl-N-phenyl-N-(3-(piperidin-1-yl)propyl)benzofuran-2-carboxamide]", "values": [{"measurement": "Ki", "setting": "Alpha2A [1]", "result": 1230, "unit": "nM"}, {"measurement": "Ki", "setting": "Alpha2C", "result": 249, "unit": "nM"}, {"measurement": "inhibition at 10 µM", "setting": "Alpha2A [2]", "result": 77.7, "unit": "%"}, {"measurement": "Ki", "setting": "5-HT2B", "result": 936, "unit": "nM"}]}]}
